Results from US20030181401A1, “Insulin secretion promoter” (KYOWA HAKKO KOGYO CO., LTD., priority 2002, published 2003).

How the values were obtained:
Type in all cases: in vivo
db/db mice [1] = test: Test Example 5: serum insulin in glucose tolerance test after 7-day oral dosing of saccharides; settings: for insulin concentration during glucose loading compared with the control group (in words): continuous daily oral dosing; for Serum insulin concentration after glucose loading, 30 minutes / Serum insulin concentration after glucose loading, 120 minutes / Serum insulin concentration after glucose loading, Zero minute: oral 200 + 300 mg/kg daily, 7 days, glucose 2 g/kg oral, mean ± SD
Procedure: (§1) Groups of male 9-week-old db/db mice (Clea Japan, Inc.) each consisting of 6 mice were fed CE-2 (Clea Japan, Inc.) for one week, so as to accustom the animals to the environment.
After acclimation, individual aqueous 10% solutions of lacto-N-neotetraose (abbreviated as “LNnT” hereinafter) and NeuAc were orally administered to the mice at 200 mg (saccharide)/kg body weight in the morning and at 300 mg (saccharide)/kg body weight in the evening. The same volume of saline was administered to the control group. The individual aqueous saccharide solutions and saline were both dosed daily to the mice for 7 days. During the dosing period, CE-2 was given together with drinking water ad libitum.
(§2) After 18-hour starvation from the final dosing on day 7, an aqueous 40% glucose solution was orally administered to 2 g (glucose)/kg body weight to the mice, to perform glucose tolerance test. Zero minute and 30 minutes after glucose loading, blood was taken from a tail vein. […] Blood was centrifuged (4° C., 10000 rpm, 10 minutes), to obtain serum.
(§3) Insulin in the serum recovered was assayed by enzyme immunoassay using Lebis Insulin kit (for rats-T) (Shibayagi, Co., Ltd.) in the same manner as in the Test Example 1.

db/db mice [2] = test: Test Example 4: serum insulin in glucose tolerance test after 7-day oral dosing of saccharides; settings: for serum insulin concentration during glucose loading compared with the control group (in words): continuous daily oral dosing; for Serum insulin concentration after glucose loading, 30 minutes / Serum insulin concentration after glucose loading, 120 minutes / Serum insulin concentration after glucose loading, Zero minute: oral 200 + 300 mg/kg daily, 7 days, glucose 2 g/kg oral, mean ± SD
Procedure: as §1
After acclimation, individual aqueous 10% solutions of 3′-sialyllactose (abbreviated as “3′-SL” hereinafter), 6′-sialylactose (abbreviated as “6′-SL”) and 2′-FL were orally administered to the mice at 200 mg (saccharide)/kg body weight in the morning and at 300 mg (saccharide)/kg body weight in the evening. The both volume of saline was administered to the control group. The individual aqueous saccharide solutions and saline were both dosed daily to the mice for 7 days. During the dosing period, CE-2 was given together with drinking water ad libitum.
as §2, §3

db/db mice [3] = test: Test Example 3: serum insulin on day 8 after 7-day oral dosing of saccharides; settings: for serum insulin concentration compared with the control group (in words): continuous daily oral dosing; for Serum insulin concentration after dosing of the individual saccharides: oral 200 + 300 mg/kg daily, 7 days, blood on day 8, no glucose loading, mean ± SD
Procedure: Group of male 9-week-old db/db mice (Clea Japan, Inc.) each consisting of 6 mice were fed CE-2 (Clea Japan, Inc.) for one week, so as to accustom the animals to the environment.
After acclimation, individual aqueous 10% solutions of globotriose (abbreviated “globo” hereinafter), N-acetyllactosamine (abbreviated as “LacNac” hereinafter) and N-acetylneuraminic acid (abbreviated as “NeuAc” hereinafter) were orally administered to the mice at 200 mg (saccharide)/kg body weight in the morning and at 300 mg (saccharide)/kg body weight in the evening.
The same volume of saline was administered to the control group. The individual aqueous saccharide solutions and saline were both dosed daily to the mice for 7 days. During the dosing period, CE-2 was given together with drinking water ad libitum.
Blood was centrifuged (4° C., 10000 rpm, 10 minutes), to obtain serum.
as §3

ICR mice [4] = test: Test Example 6: serum insulin after intravenous saccharide with simultaneous oral glucose loading
Procedure: (§4) Groups of male 9-week-old ICR mice (Japan SLC, Inc.) each consisting of 7 mice were fed CE-2 (Clea Japan, Inc.) for one week, so as to accustom the animals to the environment. Then, the mice were fasted for 18 hours.
(§5) An aqueous 10% solution of 2′-FL or NeuAc was intravenously administered to the mice to 500 mg (saccharide)/kg body weight, while an aqueous 40% glucose solution was orally administered simultaneously to 2 g (glucose)/kg body weight, to the mice. To the control group, physiological saline was administered intravenously, while glucose was orally administered simultaneously to 2 g/kg body weight. Zero minute and 30 minutes after glucose loading, blood was taken from a tail vein. […] Blood was centrifuged (4° C., 10000 rpm, 10 minutes), to obtain serum.
Insulin in the serum recovered was assayed by enzyme immunoassay using Lebis Insulin kit (for mice-T) (Shibayagi, Co., Ltd.) in the same manner as in the Test Example 2.

ICR mice [5] = test: Test Example 6: serum glucose after intravenous saccharide with simultaneous oral glucose loading
Procedure: as §4, §5
Furthermore, the glucose concentration in the serum recovered was also assayed. The glucose concentration was assayed, using Glucose CII-TEST WAKO (WAKO Pure Chemical Industries, Ltd.). 2 μl of the recovered serum was placed in a 96-well plate, followed by addition of 200 μl of the chromogenic solution attached to the kit, for incubation at 37° C. for 10 minutes. After incubation, the absorbance at 490 nm was assayed with a plate reader. Herein, a standard curve was prepared by using aqueous 500 mg/dl glucose solution as the standard solution to dilute the standard solution appropriately for the same reaction as for the serum, and plotting the relation between the concentration and the absorbance (490 nm). Based on the prepared standard curve and the absorbance from the reaction with the serum, the glucose concentration in the serum was determined.

[6] = ICR mice fasted 18 hours, 500 mg/kg intravenous with simultaneous glucose 2 g/kg oral, 30 minutes, mean ± SD
[7] = ICR mice fasted 18 hours, 500 mg/kg intravenous with simultaneous glucose 2 g/kg oral, 120 minutes, mean ± SD

In the case of CC(=O)N[C@H]1[C@H](O[C@H]2[C@@H](O)[C@@H](CO)O[C@@H](O[C@H]3[C@H](O)[C@@H](O)C(O)O[C@@H]3CO)[C@@H]2O)O[C@H](CO)[C@@H](O[C@@H]2O[C@H](CO)[C@H](O)[C@H](O)[C@H]2O)[C@@H]1O (mixture of isomers) [LNnT, lacto-N-neotetraose], the “insulin concentration during glucose loading compared with the control group (in words)” value (db/db mice [1]) is reported as “increased”, the “Serum insulin concentration after glucose loading, 30 minutes” value (“Serum insulin concentration … 30 minutes” for short) (db/db mice [1]) is reported as 21.7 ± 13.8 ng/mL and the “Serum insulin concentration after glucose loading, 120 minutes” value (shortened to “Serum insulin concentration … 120 minutes”) (db/db mice [1]) is reported as 25.9 ± 13.2 ng/mL. The “Serum insulin concentration after glucose loading, Zero minute” value (“Serum insulin concentration … Zero minute” for short) (db/db mice [1]) was 8.9 ± 2.0 ng/mL.
CC(=O)N[C@H]1[C@H]([C@H](O)[C@H](O)CO)O[C@@](OC[C@H]2O[C@@H](O[C@H]3[C@H](O)[C@@H](O)[C@H](O)O[C@@H]3CO)[C@H](O)[C@@H](O)[C@H]2O)(C(=O)O)C[C@@H]1O [6′-SL, 6′-sialylactose] was tested, and the “serum insulin concentration during glucose loading compared with the control group (in words)” value (db/db mice [2]) was “increased”, the “Serum insulin concentration … 30 minutes” value (db/db mice [2]) was 6.6 ± 3.4 ng/mL and the “Serum insulin concentration … 120 minutes” value (db/db mice [2]) was 17.9 ± 6.3 ng/mL. The “Serum insulin concentration … Zero minute” value (db/db mice [2]) was 5.9 ± 3.0 ng/mL.
For OC[C@H]1O[C@H](O[C@@H]2[C@H](O)[C@@H](O)[C@H](O[C@H]3[C@H](O)[C@@H](O)C(O)O[C@@H]3CO)O[C@@H]2CO)[C@H](O)[C@@H](O)[C@H]1O (some centres unmarked) [Globo, globotriose], the “serum insulin concentration compared with the control group (in words)” value (db/db mice [3]) was “increased” and the “Serum insulin concentration after dosing of the individual saccharides” value (from here on “Serum insulin concentration after dosing”) (db/db mice [3]) was 23.7 ± 16.4 ng/mL.
CC(=O)N[C@H]1C(O)O[C@H](CO)[C@@H](O[C@@H]2O[C@H](CO)[C@H](O)[C@H](O)[C@H]2O)[C@@H]1O (some centres unmarked) [LacNac, N-acetyllactosamine] was tested, and the “serum insulin concentration compared with the control group (in words)” value (db/db mice [3]) was “increased” and the “Serum insulin concentration after dosing” value (db/db mice [3]) was 26.8 ± 11.5 ng/mL.
With CC(=O)N[C@H]1[C@H]([C@H](O)[C@H](O)CO)O[C@@](O[C@H]2[C@@H](O)[C@@H](CO)O[C@@H](O[C@H]3[C@H](O)[C@@H](O)C(O)O[C@@H]3CO)[C@@H]2O)(C(=O)O)C[C@@H]1O (some centres unmarked) [3′-SL, 3′-sialyllactose] the “serum insulin concentration during glucose loading compared with the control group (in words)” value (db/db mice [2]) was “increased”, the “Serum insulin concentration … 30 minutes” value (db/db mice [2]) was 5.1 ± 1.9 ng/mL and the “Serum insulin concentration … 120 minutes” value (db/db mice [2]) was 22.0 ± 12.5 ng/mL. The “Serum insulin concentration … Zero minute” value (db/db mice [2]) was 6.0 ± 2.2 ng/mL.
With CC(=O)N[C@H]1[C@H]([C@H](O)[C@H](O)CO)OC(O)(C(=O)O)C[C@@H]1O (some centres unmarked) [NeuAc, N-acetylneuraminic acid] the “serum insulin concentration compared with the control group (in words)” value (db/db mice [3]) was “increased”, the “Serum insulin concentration after dosing” value (db/db mice [3]) was 68.4 ± 45.9 ng/mL and the “insulin concentration during glucose loading compared with the control group (in words)” value (db/db mice [1]) was “increased”. For the same compound, the “Serum insulin concentration … 30 minutes” value (db/db mice [1]) was 18.5 ± 8.5 ng/mL, the “Serum insulin concentration … 120 minutes” value (db/db mice [1]) was 30.3 ± 10.7 ng/mL and the “Serum insulin concentration … Zero minute” value (db/db mice [1]) was 8.9 ± 7.7 ng/mL. The “Serum insulin concentration … 30 minutes” value (ICR mice [4]; [6]) was 178.3 ± 105.5 pg/mL, the “Serum insulin concentration … 120 minutes” value (ICR mice [4]; [7]) was 384.4 ± 394.1 pg/mL and the “serum insulin concentration after glucose loading compared with the control group (in words)” value (ICR mice [4]; ICR mice, intravenous dosing) was “increased”. For the same compound, the “Serum glucose concentration after glucose loading, 30 minutes” value (ICR mice [5]; [6]) was 300.9 ± 101.6 mg/dL, the “Serum glucose concentration after glucose loading, 120 minutes” value (ICR mice [5]; [7]) was 197.6 ± 28.8 mg/dL and the “Serum glucose concentration after glucose loading, Zero minute” value (ICR mice [5]; ICR mice fasted 18 hours, 500 mg/kg intravenous with simultaneous glucose 2 g/kg oral, zero minute, mean ± SD) was 102.6 ± 12.1 mg/dL. The “increase of the serum glucose concentration compared with the control group (in words)” value (ICR mice [5]; ICR mice, intravenous dosing) was “suppressed”.
